Here are results for five compounds from PubChem BioAssay AID449758 (The Scripps Research Institute Molecular Screening Center, 2010).

Molecules are shown by their SMILES. Calls of active or inactive are those of the source. How the calls were made is not given here.

In this assay the test system is Human cells, IFNg-induced IRF-1 mRNA, SYBR qPCR. Nature of the assay: reduction of STAT1 target gene IRF-1 transcripts – cell-based, SYBR qPCR, powder samples, counter-screen for STAT1 inhibitor project, late-stage follow-up (AID 449758). The conditions noted are these: at 10 µM; hits give low values. On the technique in general: Quantitative PCR measures a nucleic acid by following its amplification.
As for `CCOC(=O)C(=CNc1cc(C)nn1-c1ccccc1)C(=O)OCC`, the fold change is 0.997 (inactive).

For the compound `CCOC(=O)N1CCN(C(=O)c2ccc(-n3c(=S)[nH]c4ccccc4c3=O)cc2)CC1`, the fold change was 0.883 (inactive).

Consider `Cc1cc(=O)n(C(NC(=O)c2ccccc2)C(=O)c2ccccc2)cn1` (stereo not given), for which the fold change is 1.24 (inactive).

On to `O=c1cc(CSc2nc3ccccc3c(=O)[nH]2)c2ccc(O)cc2o1`, for which the fold change is 1.36 (inactive).

On to `Cc1ccc(-n2nc(C(=O)O)c3ccccc3c2=O)cc1C`, for which the fold change is 0.764 (inactive).
